These are literature values, as cited in patent US9403744B2, “Process for the production of alkyl ethers by the etherification of isobutene” (SAIPEM S.p.A., priority 2006, dated 2016).

For this series the following is noted: in water.

`CCC(C)(C)OC` [TAME, methyl ter-amyl ether]: the “Solubility in H2O” value is 1.1 w %. For `CCOC(C)(C)C` [ETBE, ethyl ter-butyl ether], the “Solubility in H2O” value is on record as 1.2 w %.
